From patent US7799781B2, “5,6,7,8-tetrahydropteridine derivatives as HSP90 inhibitors” (AstraZeneca AB, priority 2007, dated 2010)

The molecules below were run against T1, HSP90α (Homo sapiens, UniProt P07900) (assay: Test (a) In Vitro Binding Assay (fluorescence polarisation, binding to the ATP pocket of HSP90α)). Details: FP probe displacement, geometric mean where tested more than once.
T1 construct: 6H is tagged HSP90α protein (amino acids 2-732) expressed in E. coli; 6His; made in house; host or cells: E. coli
Experimental: Test (a) In Vitro Binding Assay
Test (a) measures the ability of a compound to bind to the ATP pocket of HSP90α. 6H is tagged HSP90α protein (amino acids 2-732) expressed in E. coli was purified and stored at −80° C. in aliquots. Assay measurements were performed in assay buffer comprising 20 mM HEPES pH 7.4, 50 mM KCl, 20 mM NaHMoO4, 0.01% Nonidet P40, 2 mM DTT and 0.1 mg/ml BSA. Following resuspension in DMSO, the FP probe 3-[[5-(5-ethyl-2,4-dihydroxy-phenyl)-4-(4-methoxyphenyl)2H-pyrazole-3-carbonyl]amino]propyl-Cy3B-amide; 14-(2-{[3-({[3-(5-ethyl-2,4-dihydroxyphenyl)-4-(4-methoxyphenyl)-1H-pyrazol-5-yl]carbonyl}amino)propyl]amino}-2-oxoethyl)-16,16,18,18-tetramethyl-2-sulfo-6,7,7a,8a,9,10,16,18-octahydrobenzo[2″,3″]indolizino [8″,7″:5′,6′]pyrano[3′,2′:3,4]pyrido[1,2-a]indol-5-ium) was diluted to a final concentration of 5 nM in assay buffer. Test compounds were prepared by dilution in 100% DMSO to give the appropriate dose range and dispensed into a 384 well assay plate as a 6X concentrate. Upon addition of recombinant HSP90α to a final assay concentration of 1 μg/ml, FP probe was added and plates incubated at room temperature for 1 to 4 hours. Final DMSO concentration was 1% in a total assay volume of 18 μl. Fluorescence Polarisation measurements were made using a Tecan Ultra plate reader using an excitation wavelength of 530 nm and an emission wavelength of 590 nm. Millipolarisation (mP) values were estimated using Xfluor software.
The data in the above table was generated in an assay substantially as described above in relation to in-vitro Binding Assay (a). Some of the compounds shown in the table were tested more than once in the assay. For those compounds the IC50 value shown is the geometric mean of the measured IC50 values. Therefore, as will be understood, the IC50 values quoted above are not absolute and further measurements of the IC50 values may result in a different mean IC50 value.

Row | Compound | IC50
1 | COc1c(C)cnc(CN2c3nc(N)ncc3N(CC(C)(C)N(C)C)C(=O)[C@H]2C)c1C [Example 11.12, (7R)-2-amino-5-[2-(dimethylamino)-2-methylpropyl]-8-[(4-methoxy-3,5-dimethylpyridin-2-yl)methyl]-7-methyl-7,8-dihydropteridin-6(5H)-one] | 16000 nM
2 | COc1c(C)cnc(CN2c3nc(N)ncc3N(CCCN(C)C)C(=O)[C@H]2C)c1C [Example 11.13, (7R)-2-amino-5-[3-(dimethylamino)propyl]-8-[(4-methoxy-3,5-dimethylpyridin-2-yl)methyl]-7-methyl-7,8-dihydropteridin-6(5H)-one] | 4850 nM
3 | COc1c(C)cnc(CN2c3nc(N)ncc3N(CCN3CCOCC3)C(=O)[C@H]2C)c1C [Example 11.14, (7R)-2-amino-8-[(4-methoxy-3,5-dimethylpyridin-2-yl)methyl]-7-methyl-5-(2-morpholin-4-ylethyl)-7,8-dihydropteridin-6(5H)-one] | 2400 nM
4 | COc1c(C)cnc(CN2c3nc(N)ncc3N(CCc3ccncc3)C(=O)[C@H]2C)c1C [Example 11.15, (7R)-2-amino-8-[(4-methoxy-3,5-dimethylpyridin-2-yl)methyl]-7-methyl-5-(2-pyridin-4-ylethyl)-7,8-dihydropteridin-6(5H)-one] | 563 nM
5 | COc1c(C)cnc(CN2c3nc(N)ncc3N(CCc3cccnc3)C(=O)[C@H]2C)c1C [Example 11.16, (7R)-2-amino-8-[(4-methoxy-3,5-dimethylpyridin-2-yl)methyl]-7-methyl-5-(2-pyridin-3-ylethyl)-7,8-dihydropteridin-6(5H)-one] | 542 nM
6 | COc1c(C)cnc(CN2c3nc(N)ncc3N(CCCc3cccnc3)C(=O)[C@H]2C)c1C [Example 11.17, (7R)-2-amino-8-[(4-methoxy-3,5-dimethylpyridin-2-yl)methyl]-7-methyl-5-(3-pyridin-3-ylpropyl)-7,8-dihydropteridin-6(5H)-one] | 1480 nM
7 | COc1c(C)cnc(CN2CC(=O)N(CCc3cccnc3)c3c(Cl)nc(N)nc32)c1C [Example 11.18, 2-amino-4-chloro-8-[(4-methoxy-3,5-dimethylpyridin-2-yl)methyl]-5-(2-pyridin-3-ylethyl)-7,8-dihydropteridin-6(5H)-one] | 166 nM
8 | CCCN1C(=O)CN(Cc2ncc(C)c(OC)c2C)c2nc(N)ncc21 [Example 11.19, 2-amino-8-[(4-methoxy-3,5-dimethylpyridin-2-yl)methyl]-5-propyl-7,8-dihydropteridin-6(5H)-one] | 619 nM
9 | COc1c(C)cnc(CN2c3nc(N)ncc3N(CCN3CCNC3=O)C(=O)[C@H]2C)c1C [Example 11.20, (7R)-2-amino-8-[(4-methoxy-3,5-dimethylpyridin-2-yl)methyl]-7-methyl-5-[2-(2-oxoimidazolidin-1-yl)ethyl]-7,8-dihydropteridin-6(5H)-one] | 2680 nM
10 | COc1c(C)cnc(CN2c3nc(N)ncc3N(CCN3CCCC3=O)C(=O)[C@H]2C)c1C [Example 11.21, (7R)-2-amino-8-[(4-methoxy-3,5-dimethylpyridin-2-yl)methyl]-7-methyl-5-[2-(2-oxopyrrolidin-1-yl)ethyl]-7,8-dihydropteridin-6(5H)-one] | 4610 nM
11 | COc1c(C)cnc(CN2CC(=O)N(Cc3ccccc3)c3c(Cl)nc(N)nc32)c1C [Example 11.22, 2-amino-5-benzyl-4-chloro-8-[(4-methoxy-3,5-dimethylpyridin-2-yl)methyl]-7,8-dihydropteridin-6(5H)-one] | 288 nM
12 | CCCN1C(=O)CN(Cc2ncc(C)c(OC)c2C)c2nc(N)nc(Cl)c21 [Example 11.23, 2-amino-4-chloro-8-[(4-methoxy-3,5-dimethylpyridin-2-yl)methyl]-5-propyl-7,8-dihydropteridin-6(5H)-one] | 49.6 nM
13 | COc1c(C)cnc(CN2CC(=O)N(CCc3ccccc3)c3c(Cl)nc(N)nc32)c1C [Example 11.24, 2-amino-4-chloro-8-[(4-methoxy-3,5-dimethylpyridin-2-yl)methyl]-5-(2-phenylethyl)-7,8-dihydropteridin-6(5H)-one] | 81.8 nM
14 | COc1c(C)cnc(CN2c3nc(N)ncc3NC(=O)[C@H]2CC(=O)O)c1C [Example 12, {(7R)-2-amino-8-[(4-methoxy-3,5-dimethylpyridin-2-yl)methyl]-6-oxo-5,6,7,8-tetrahydropteridin-7-yl}acetic acid] | 7340 nM
15 | COc1c(C)cnc(CN2c3nc(N)ncc3NC(=O)[C@H]2CC(N)=O)c1C [Example 13, 2-{(7R)-2-amino-8-[(4-methoxy-3,5-dimethylpyridin-2-yl)methyl]-6-oxo-5,6,7,8-tetrahydropteridin-7-yl}acetamide] | 1750 nM
16 | COc1c(C)cnc(CN2c3nc(N)ncc3NC(=O)[C@H]2CC(=O)NCCCN(C)C)c1C [Example 14.1, 2-{(7R)-2-amino-8-[(4-methoxy-3,5-dimethylpyridin-2-yl)methyl]-6-oxo-5,6,7,8-tetrahydropteridin-7-yl}-N-[3-(dimethylamino)propyl]acetamide] | 1630 nM
17 | COc1c(C)cnc(CN2c3nc(N)ncc3NC(=O)[C@H]2CC(=O)NCCN(C)C)c1C [Example 14.2, 2-{(7R)-2-amino-8-[(4-methoxy-3,5-dimethylpyridin-2-yl)methyl]-6-oxo-5,6,7,8-tetrahydropteridin-7-yl}-N-[2-(dimethylamino)ethyl]acetamide] | 1620 nM
18 | COc1c(C)cnc(CN2CC(=O)Nc3c(C)nc(N)nc32)c1C [Example 15, 2-amino-8-[(4-methoxy-3,5-dimethyl-pyridin-2-yl)methyl]-4-methyl-5,7-dihydropteridin-6-one] | 808 nM
